Measurements taken from ChEMBL document CHEMBL4507291 (2021).

Key:
[1] = molecular target: Cyclin-dependent kinase 7 (Homo sapiens) (UniProt P50613)
[2] = molecular target: Ephrin type-B receptor 6 (Homo sapiens) (UniProt O15197)
[3] = molecular target: Glycogen synthase kinase-3 beta (Homo sapiens) (UniProt P49841)
[4] = molecular target: T1, Mitogen-activated protein kinase kinase kinase kinase 2 (Homo sapiens) (UniProt Q12851)
T1 sequence (whole entry): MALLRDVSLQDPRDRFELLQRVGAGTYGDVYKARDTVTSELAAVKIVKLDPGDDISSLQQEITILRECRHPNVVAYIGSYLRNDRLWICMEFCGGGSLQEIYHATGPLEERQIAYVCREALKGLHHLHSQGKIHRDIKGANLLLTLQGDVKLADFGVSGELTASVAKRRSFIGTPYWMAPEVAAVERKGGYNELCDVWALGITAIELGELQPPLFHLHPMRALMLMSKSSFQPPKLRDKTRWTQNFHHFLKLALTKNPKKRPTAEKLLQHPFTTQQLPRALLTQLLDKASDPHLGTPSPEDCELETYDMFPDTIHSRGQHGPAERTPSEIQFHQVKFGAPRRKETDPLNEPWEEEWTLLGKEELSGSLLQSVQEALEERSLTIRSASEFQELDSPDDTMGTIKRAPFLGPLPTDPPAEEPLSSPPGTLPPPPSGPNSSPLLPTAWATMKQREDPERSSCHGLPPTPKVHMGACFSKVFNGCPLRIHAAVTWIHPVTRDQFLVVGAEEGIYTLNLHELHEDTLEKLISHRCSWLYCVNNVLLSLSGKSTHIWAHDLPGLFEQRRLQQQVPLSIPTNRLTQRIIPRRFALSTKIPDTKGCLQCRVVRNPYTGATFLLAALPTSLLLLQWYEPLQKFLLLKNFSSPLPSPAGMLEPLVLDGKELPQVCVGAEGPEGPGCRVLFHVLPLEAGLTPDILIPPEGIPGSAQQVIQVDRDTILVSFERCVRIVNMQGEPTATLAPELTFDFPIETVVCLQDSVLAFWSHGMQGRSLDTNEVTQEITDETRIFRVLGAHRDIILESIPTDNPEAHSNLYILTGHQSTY

[5] = molecular target: Serine/threonine-protein kinase PAK 4 (Homo sapiens) (UniProt O96013)
Serine/threonine-protein kinase PAK 4 (Homo sapiens), sequence (O96013 whole entry, looked up): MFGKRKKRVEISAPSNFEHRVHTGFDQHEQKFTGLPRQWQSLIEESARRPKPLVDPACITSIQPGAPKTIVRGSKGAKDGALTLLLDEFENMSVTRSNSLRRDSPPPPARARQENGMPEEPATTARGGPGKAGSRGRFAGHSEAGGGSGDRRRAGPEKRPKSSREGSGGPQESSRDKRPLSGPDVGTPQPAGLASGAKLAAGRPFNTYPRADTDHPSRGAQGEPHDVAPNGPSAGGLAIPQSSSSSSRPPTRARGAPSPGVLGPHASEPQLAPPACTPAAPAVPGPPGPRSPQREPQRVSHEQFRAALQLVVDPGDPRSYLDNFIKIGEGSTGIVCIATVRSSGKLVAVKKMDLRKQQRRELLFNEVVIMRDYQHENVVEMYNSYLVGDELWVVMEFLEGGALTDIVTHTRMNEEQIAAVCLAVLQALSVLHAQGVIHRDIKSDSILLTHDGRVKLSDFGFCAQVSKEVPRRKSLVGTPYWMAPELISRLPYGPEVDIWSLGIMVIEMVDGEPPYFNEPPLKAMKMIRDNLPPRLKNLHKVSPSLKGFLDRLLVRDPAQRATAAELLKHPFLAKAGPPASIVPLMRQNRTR

[6] = molecular target: T2, Mitogen-activated protein kinase kinase kinase 7 (Homo sapiens) (UniProt O43318)
T2 sequence (whole entry): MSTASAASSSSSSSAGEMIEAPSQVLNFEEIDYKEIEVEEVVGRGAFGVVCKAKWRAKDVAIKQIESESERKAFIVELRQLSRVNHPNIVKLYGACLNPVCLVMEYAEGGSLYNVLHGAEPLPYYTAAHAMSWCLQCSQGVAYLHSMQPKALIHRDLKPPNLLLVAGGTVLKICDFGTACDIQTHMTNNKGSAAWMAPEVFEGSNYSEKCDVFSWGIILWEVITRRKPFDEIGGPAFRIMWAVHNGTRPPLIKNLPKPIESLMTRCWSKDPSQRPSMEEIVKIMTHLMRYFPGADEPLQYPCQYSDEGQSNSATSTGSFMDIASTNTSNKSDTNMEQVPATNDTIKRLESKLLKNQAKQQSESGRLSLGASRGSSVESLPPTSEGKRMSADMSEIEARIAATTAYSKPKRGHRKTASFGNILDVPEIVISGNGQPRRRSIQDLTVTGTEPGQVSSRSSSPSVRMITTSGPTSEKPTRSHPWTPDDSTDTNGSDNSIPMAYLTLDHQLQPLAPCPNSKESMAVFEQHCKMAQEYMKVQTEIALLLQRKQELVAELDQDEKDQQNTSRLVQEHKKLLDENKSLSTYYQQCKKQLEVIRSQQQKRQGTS

[7] = molecular target: T3, Serine/threonine-protein kinase TAO3 (Homo sapiens) (UniProt Q9H2K8)
T3 sequence (whole entry): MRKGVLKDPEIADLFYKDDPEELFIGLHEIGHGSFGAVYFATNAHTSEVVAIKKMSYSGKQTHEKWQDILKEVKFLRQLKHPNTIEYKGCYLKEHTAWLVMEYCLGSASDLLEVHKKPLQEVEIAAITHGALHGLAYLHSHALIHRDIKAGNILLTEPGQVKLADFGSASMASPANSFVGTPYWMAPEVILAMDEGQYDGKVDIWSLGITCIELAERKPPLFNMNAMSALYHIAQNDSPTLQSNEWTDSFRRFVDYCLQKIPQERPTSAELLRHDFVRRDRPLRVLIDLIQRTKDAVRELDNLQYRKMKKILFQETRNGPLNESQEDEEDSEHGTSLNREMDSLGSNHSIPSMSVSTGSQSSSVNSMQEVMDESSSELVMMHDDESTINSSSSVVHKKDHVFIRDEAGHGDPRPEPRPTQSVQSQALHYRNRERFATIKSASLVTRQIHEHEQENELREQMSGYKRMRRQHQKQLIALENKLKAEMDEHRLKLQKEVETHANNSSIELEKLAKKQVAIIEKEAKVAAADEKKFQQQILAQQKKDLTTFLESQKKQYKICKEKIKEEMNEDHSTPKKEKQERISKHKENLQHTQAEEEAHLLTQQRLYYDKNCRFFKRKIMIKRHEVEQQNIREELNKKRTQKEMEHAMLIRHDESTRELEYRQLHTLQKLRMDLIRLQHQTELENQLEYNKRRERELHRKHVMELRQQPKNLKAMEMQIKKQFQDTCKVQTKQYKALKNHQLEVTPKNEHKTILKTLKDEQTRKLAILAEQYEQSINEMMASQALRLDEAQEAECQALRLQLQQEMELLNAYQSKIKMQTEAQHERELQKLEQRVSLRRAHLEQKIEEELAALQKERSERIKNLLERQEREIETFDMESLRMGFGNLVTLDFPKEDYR

[8] = molecular target: Testis-specific serine/threonine-protein kinase 3 (Homo sapiens) (UniProt Q96PN8)
Testis-specific serine/threonine-protein kinase 3 (Homo sapiens), sequence (Q96PN8 whole entry): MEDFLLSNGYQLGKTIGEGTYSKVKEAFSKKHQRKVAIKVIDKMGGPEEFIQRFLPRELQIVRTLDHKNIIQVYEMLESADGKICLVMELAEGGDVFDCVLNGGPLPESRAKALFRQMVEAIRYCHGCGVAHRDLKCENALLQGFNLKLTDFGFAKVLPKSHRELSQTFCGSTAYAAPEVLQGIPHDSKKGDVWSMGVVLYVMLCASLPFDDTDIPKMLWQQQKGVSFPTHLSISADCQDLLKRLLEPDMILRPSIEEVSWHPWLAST

[9] = molecular target: Histamine H1 receptor (Homo sapiens) (UniProt P35367); conditions: Compound concentration 10.0 uM
Histamine H1 receptor (Homo sapiens), sequence (P35367 whole entry): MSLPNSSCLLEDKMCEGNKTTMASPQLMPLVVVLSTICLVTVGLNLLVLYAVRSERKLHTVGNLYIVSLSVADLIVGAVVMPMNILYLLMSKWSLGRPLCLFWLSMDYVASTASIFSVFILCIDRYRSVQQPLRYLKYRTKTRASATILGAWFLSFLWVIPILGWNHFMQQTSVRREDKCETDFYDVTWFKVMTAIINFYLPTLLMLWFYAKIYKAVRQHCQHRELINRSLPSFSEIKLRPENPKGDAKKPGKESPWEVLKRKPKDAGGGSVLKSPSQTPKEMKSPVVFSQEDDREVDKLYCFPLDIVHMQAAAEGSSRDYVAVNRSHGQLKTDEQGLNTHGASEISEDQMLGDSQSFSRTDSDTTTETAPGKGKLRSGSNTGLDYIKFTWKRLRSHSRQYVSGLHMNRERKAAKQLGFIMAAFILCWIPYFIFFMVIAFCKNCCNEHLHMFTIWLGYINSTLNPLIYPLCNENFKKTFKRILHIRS

[10] = Compound concentration 1000.0 nM
[11] = Compound concentration 100.0 nM

Cyclin-dependent kinase 7 (Homo sapiens), sequence (P50613 whole entry): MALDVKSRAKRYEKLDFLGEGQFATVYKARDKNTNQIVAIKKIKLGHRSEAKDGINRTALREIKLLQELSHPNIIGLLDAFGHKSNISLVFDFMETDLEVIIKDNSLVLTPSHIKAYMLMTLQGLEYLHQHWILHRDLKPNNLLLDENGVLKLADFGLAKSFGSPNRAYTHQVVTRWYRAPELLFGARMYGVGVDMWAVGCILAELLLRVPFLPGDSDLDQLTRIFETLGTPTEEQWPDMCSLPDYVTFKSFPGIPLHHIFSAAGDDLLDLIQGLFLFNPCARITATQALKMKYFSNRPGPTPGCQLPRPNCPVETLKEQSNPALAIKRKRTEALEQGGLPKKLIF
Glycogen synthase kinase-3 beta (Homo sapiens), sequence (P49841 whole entry, looked up): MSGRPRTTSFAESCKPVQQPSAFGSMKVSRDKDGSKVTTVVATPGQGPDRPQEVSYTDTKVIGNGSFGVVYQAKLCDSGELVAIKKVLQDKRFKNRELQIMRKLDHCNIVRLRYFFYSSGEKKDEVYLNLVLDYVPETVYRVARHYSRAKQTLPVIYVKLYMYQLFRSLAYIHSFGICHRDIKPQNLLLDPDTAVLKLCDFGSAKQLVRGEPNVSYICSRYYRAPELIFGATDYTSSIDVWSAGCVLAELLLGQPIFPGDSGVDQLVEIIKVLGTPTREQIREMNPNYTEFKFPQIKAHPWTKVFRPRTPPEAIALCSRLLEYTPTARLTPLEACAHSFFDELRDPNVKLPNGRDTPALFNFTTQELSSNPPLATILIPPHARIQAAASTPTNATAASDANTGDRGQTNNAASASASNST
Ephrin type-B receptor 6 (Homo sapiens), sequence (O15197 whole entry): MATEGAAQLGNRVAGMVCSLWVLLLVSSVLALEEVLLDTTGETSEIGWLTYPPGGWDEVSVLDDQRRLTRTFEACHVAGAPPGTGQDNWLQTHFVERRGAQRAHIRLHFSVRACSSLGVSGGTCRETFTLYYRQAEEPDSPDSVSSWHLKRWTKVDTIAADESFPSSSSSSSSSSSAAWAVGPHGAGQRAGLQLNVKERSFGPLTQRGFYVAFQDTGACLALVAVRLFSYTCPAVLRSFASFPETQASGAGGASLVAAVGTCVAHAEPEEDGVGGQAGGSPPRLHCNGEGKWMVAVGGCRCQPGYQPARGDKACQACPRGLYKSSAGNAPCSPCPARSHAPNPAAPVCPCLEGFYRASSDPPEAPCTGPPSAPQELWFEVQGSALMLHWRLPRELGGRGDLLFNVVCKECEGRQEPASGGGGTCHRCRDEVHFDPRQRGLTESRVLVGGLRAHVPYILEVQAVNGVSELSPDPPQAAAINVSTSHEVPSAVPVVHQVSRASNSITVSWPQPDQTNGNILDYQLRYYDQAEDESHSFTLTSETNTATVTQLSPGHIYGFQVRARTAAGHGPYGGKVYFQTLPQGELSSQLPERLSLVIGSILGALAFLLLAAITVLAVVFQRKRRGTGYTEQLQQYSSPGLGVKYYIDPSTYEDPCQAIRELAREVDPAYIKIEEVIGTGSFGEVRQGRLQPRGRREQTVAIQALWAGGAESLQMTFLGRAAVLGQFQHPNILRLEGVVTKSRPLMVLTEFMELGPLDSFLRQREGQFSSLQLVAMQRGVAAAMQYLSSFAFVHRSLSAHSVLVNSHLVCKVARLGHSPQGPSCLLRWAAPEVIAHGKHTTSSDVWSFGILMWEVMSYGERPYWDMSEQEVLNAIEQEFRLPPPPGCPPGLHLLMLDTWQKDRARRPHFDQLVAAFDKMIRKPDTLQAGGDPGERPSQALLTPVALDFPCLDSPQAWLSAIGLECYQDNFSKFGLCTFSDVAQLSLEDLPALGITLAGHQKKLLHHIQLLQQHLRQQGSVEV

Row | Structure (SMILES) | residual activity [1, 10] | residual activity [2, 10] | residual activity [3, 10] | residual activity [4, 10] | residual activity [5, 10] | residual activity [6, 10] | residual activity [7, 10] | residual activity [8, 10] | inhibition [9] | residual activity [1, 11] | residual activity [2, 11] | residual activity [3, 11] | residual activity [4, 11] | residual activity [5, 11] | residual activity [6, 11] | residual activity [7, 11] | residual activity [8, 11]
1 | C[C@@H]1CN(c2cc(-c3nn(C)c4ccc(OC5(C)CC5)cc34)ncn2)C[C@H](C)O1 [MLi-2-NC] | 100% | 100% | 91% | 81% | 93% | 89% | 35% | 75% | 11.9% | – | – | – | – | – | – | – | –
2 | C[C@@H]1CN(c2cc(-c3n[nH]c4ccc(OC5(C)CC5)cc34)ncn2)C[C@H](C)O1 [MLi-2] | – | – | – | – | – | – | – | – | -6.46% | 56% | 91% | 90% | 76% | 97% | 70% | 69% | 79%
